Where two headings read alike, the source gives them in different places.
Assays:
[1] = tested on: NMDA receptor; settings: C. Carter et al, 1988; cited from earlier work
[2] = target: NMDA receptor-ionophore complex (polyamine domain / NMDA ionophore); experiment: Spermidine (polyamine)-stimulated [3H]TCP binding, functional model of coupling of the polyamine domain to the NMDA ionophore; settings: spermidine-stimulated [3H]TCP binding, rat cortex; for IC50: at least two independent experiments
Method: Polyamine-stimulated [^3 H]TCP: Crude synaptic ("buffy coat") membranes were prepared from freshly dissected cerebral cortices. Membrane preparations were extensively washed employing 3 freeze-thaw cycles. The final pellet was stored at -70° C. for 1-7 days prior to assay. On the day of assay, the membrane pellet was washed twice by resuspension and centrifugation (45,000 g, 10 min. ). […] Assays were terminated by rapid vacuum filtration through GF/B filter paper (pre-soaked in 0.5% aqueous polyethyleneimine) in a Brandel M-48R Cell Harvester and thorough washing with ice-cold 5 mM Tris HCl pH 7.7.

[3] = target: polyamine domain of the NMDA receptor-complex; experiment: Binding of [125I]ifenprodil to rat cortical membranes (polyamine domain interaction)
Method: The NMDA receptor-ionophore complex consists of a number of interacting domains, including one for polyamines where ifenprodil binds to exert its noncompetitive antagonism. Ifenprodil was iodinated with Na^125 I/chloramine-T, purified and its binding characterized.
(§1) Membranes were prepared from freshly dissected brains of adult male Sprague-Dawley rats (175-250 g).
^125 I]Ifenprodil: Crude membranes were prepared from freshly dissected cerebral cortices as described elsewhere [P. M. Beart et al, Neurosci. Lett., 124, 187-189 (1991)]. Briefly, assays were performed in 5 mM Tris HCl pH 7.7 containing [^125 I]ifenprodil (20,000 dpms, ~20 pM) and cortical membranes (0.5 mg wet wt.) in a final volume of 0 5 mL Incubations were for 30 min at 20° C., in triplicate, employing 12 concentrations of competing drugs. Non-specific binding was defined with 10 mM spermine. Assays were terminated by rapid filtration through GF/B filter paper and washing [Beart et al, Id., (1991)].
Binding data were analyzed by the iterative curve fitting programs EBDA and LIGAND as fully described elsewhere [Beart et al, Id., (1989)].

[4] = Arch. Int. Pharm., 1983; cited from earlier work
[5] = tested on: sigma site; experiment: Sigma site binding: inhibition of R(+)-[3H]3-PPP binding; set-up: species or system rat; settings: for affinity for the high affinity sigma site / inhibition of binding of R(+)-[3H]3-PPP / model describing the interaction with the site labelled by R(+)-[3H]3-PPP: in words; for affinity for the high affinity sigma site: computer-assisted analyses
Method: as §1
R(+-^3 H]3-PPP: Crude membranes were prepared from whole brain (minus cerebellum) as described previously [P. M. Beart et al, J. Neurochem., 53, 779-788 (1989)]. A filtration binding assay was employed under similar conditions to those of Largent et al (1986) with 3 nM R (+)-[^3 H]-3-PPP and a 90 min. incubation at 25° C. (Beart et al, 1989). Non-specific binding was defined with 10 μ1,3-di(2-tolyl)guanidine (DTG).
Binding data were analyzed by the iterative curve fitting programs EBDA and LIGAND as fully described elsewhere [Beart et al, Id., (1989)]. Results obtained from experiments examining spermidine-stimulated binding of ^3 H]TCP were analyzed by the program FLEXIFIT [V. Guardabasso et al, FASEB J., 2, 209-215 (1988)] which iteratively fits data to a sigmoidal model providing estimates of IC50 and slope for the drug under study.

[6] = in certain cases and mostly high doses; cited from earlier work
[7] = tested on: sigma site; settings: J. Benavides et al, 1990; cited from earlier work
[8] = tested on: sigma site; settings: P. C. Contreras et al, 1990; cited from earlier work
[9] = tested on: NMDA receptor complex; settings: [3H]TCP and [3H]dizocilpine (MK-801); cited from earlier work
[10] = rat cortical membranes, mean ± s.e.m., n = 3 or 4, read-out: [125I] IFENPRODIL Kd
[11] = one site fit, pooled data, n = 2 independent experiments, read-out: KG = Dissociation constant for one site fit
[12] = two site fit, fitted better to 2 site model (P < 0.05)
[13] = two site fit, fitted better to 2 site model (P < 0.05), read-out: KH = Dissociation constant at high affinity site for two site fit
[14] = two site fit, fitted better to 2 site model (P < 0.05), read-out: KL = Dissociation constant at low affinity site for two site fit
[15] = two site fit, value in parentheses (exception to better 2 site fit)
[16] = two site fit, value in parentheses (exception to better 2 site fit), read-out: KH = Dissociation constant at high affinity site for two site fit
[17] = two site fit, value in parentheses (exception to better 2 site fit), read-out: KL = Dissociation constant at low affinity site for two site fit
[18] = one site fit, *one experiment, read-out: KG = Dissociation constant for one site fit
[19] = n=4 (spermine), n=3 (spermidine), read-out: dissociation constants for spermine and spermidine (inhibition of specific [125I]ifenprodil binding)

In the case of “1-(4chlorophenyl)-2-[1-(4-fluorophenyl)piperidinyl]ethanol”, the NMDA receptor antagonism [1] is given as “noncompetitive NMDA receptor antagonists”.
For `C[C@H](NCCCCc1ccccc1)[C@H](O)c1ccc2c(c1)CCS2` (relative stereo) [Compound 7], the IC50 [2] is given as 8200 nM, the Kd [3, 10] is given as 3600 ± 300 nM and the antihypertensive effect [4] is given as “antihypertensive effect”. The anxiolytic activity [4] was “anxiolytic activity”, the “affinity for the high affinity sigma site” value [5] was “appreciable affinity” and the Kd [5, 11] was 170 nM. The “% RH = Percent of high affinity binding sites for two site fit” value (“% RH = Percent” below) [5, 12] was 66%, the Kd [5, 13] was 44 nM and the Kd [5, 14] was 11000 nM.
With `C[C@H](NCCCCc1ccccc1)[C@@H](O)c1ccc2c(c1)CCS2` (relative stereo) [Compound 183] the “SPERMIDINE [3H] TCP IC50 (class symbol: inhibitory at 50 μM)” value [2] was “+”, the Kd [3, 10] was 9300 ± 5400 nM and the Kd [5, 11] was 450 nM. For the same compound, the “% RH = Percent” value [5, 15] was 84%, the Kd [5, 16] was 300 nM and the Kd [5, 17] was 130000 nM.
With `CC(NCCCCc1ccccc1)C(O)c1ccc2c(c1)CCS2` (single isomer, unassigned) [Compound 184] the “SPERMIDINE [3H] TCP IC50 (class symbol: inhibitory at 50 μM)” value [2] was “+”, the Kd [3, 10] was 6300 ± 1800 nM and the “affinity for the high affinity sigma site” value [5] was “appreciable affinity”. For the same compound, the Kd [5, 11] was 230 nM and the “% RH = Percent” value [5, 12] was 54%.
For `CC(NCCCCc1ccccc1)C(O)c1ccc2c(c1)CCS2` (single isomer, unassigned) [Compound 185], the IC50 [2] was 59000 nM, the Kd [3, 10] was 3500 ± 1100 nM and the “inhibition of binding of R(+)-[3H]3-PPP” value [5] was “very potent inhibitors”. For the same compound, the “affinity for the high affinity sigma site” value [5] was “appreciable affinity”, the Kd [5, 11] was 32 nM and the “% RH = Percent” value [5, 15] was 63%. For the same compound, the Kd [5, 16] was 4.6 nM and the Kd [5, 17] was 300 nM.
In the case of `C=CCN1CCC2(C)c3cc(O)ccc3CC1C2C` (single isomer, unassigned; (+)) [(+)SKF10.047, N-allylnormetazocine, reference compound], the Kd [5, 11] is reported as 1500 nM, the “% RH = Percent” value [5, 12] is reported as 60% and the Kd [5, 13] is reported as 48 nM. The Kd [5, 14] was 6300 nM.
For `CCCCN(C)CC(O)c1ccc2c(c1)CCC2` (centres unmarked) [1-(5-indanyl)-2-amino-N,N-n-butyl-methylethanol], the CNS-activity [6] is listed as “in certain cases and mostly high doses posess a CNS-activity”.
For `OC(CNC1CCCCCC1)c1ccc2c(c1)CCC2` (centres unmarked) [1-(5-indanyl)-2-amino-N-cycloheptyl-ethanol], the CNS-activity [6] is given as “in certain cases and mostly high doses posess a CNS-activity”.
For `OC(CN1CCN(Cc2ccccc2)CC1)c1ccc2c(c1)CCC2` (centres unmarked) [1-(5-indanyl)-2-amino-N-phenylmethylpiperazinoethanol], the CNS-activity [6] is given as “in certain cases and mostly high doses posess a CNS-activity”.
For `CC(NCCCCc1ccccc1)C(O)c1ccc2c(c1)CCCS2` (centres unmarked) [Compound 2], the “SPERMIDINE [3H] TCP IC50 (class symbol: inhibitory at 50 μM)” value [2] was “+”, the Kd [3, 10] was 9300 ± 5500 nM and the Kd [5, 18] was 400 nM. The “% RH = Percent” value [5, 15] was 72%, the Kd [5, 16] was 150 nM and the Kd [5, 17] was 4300 nM.
For `CC(NCCCCOc1ccccc1)C(O)c1ccc2c(c1)CCCS2` (centres unmarked) [Compound 24], the “SPERMIDINE [3H] TCP IC50 (class symbol: inhibitory at 50 μM)” value [2] was “+”, the Kd [3, 10] was 3700 ± 1100 nM and the Kd [5, 18] was 390 nM. For the same compound, the “% RH = Percent” value [5, 15] was 63%, the Kd [5, 16] was 89 nM and the Kd [5, 17] was 3000 nM.
Work on `CC(C(O)c1ccc2c(c1)CCCS2)N1CCC(Cc2ccccc2)CC1` (centres unmarked) [Compound 26] yielded a Kd [3, 10] of 12000 nM.
With `CC(CCCc1ccccc1)NC(C)C(O)c1ccc2c(c1)CCCS2` (centres unmarked) [Compound 42] the “SPERMIDINE [3H] TCP IC50 (class symbol: inhibitory at 50 μM)” value [2] was “+” and the Kd [3, 10] was 2700 ± 400 nM.
In the case of `CC(NCCCc1ccccc1)C(O)c1ccc2c(c1)CCCS2` (centres unmarked) [Compound 75], the “SPERMIDINE [3H] TCP IC50 (class symbol: inhibitory at 50 μM)” value [2] is reported as “+”, the Kd [3, 10] is reported as 5000 ± 1400 nM and the Kd [5, 11] is reported as 340 nM. The “% RH = Percent” value [5, 12] was 67%, the Kd [5, 13] was 86 nM and the Kd [5, 14] was 4300 nM.
With `CC(C(O)c1ccc2c(c1)CCS2)N1CCC(Cc2ccccc2)CC1` (centres unmarked) [Compound 186] the “SPERMIDINE [3H] TCP IC50 (class symbol: inhibitory at 50 μM)” value [2] was “+”, the Kd [3, 10] was 6700 ± 1100 nM and the “inhibition of binding of R(+)-[3H]3-PPP” value [5] was “very potent inhibitors”. The Kd [5, 11] was 30 nM, the “% RH = Percent” value [5, 15] was 72% and the Kd [5, 16] was 2.9 nM. It also gave a Kd [5, 17] of 600 nM.
In the case of `CC(C(O)c1ccc(O)cc1)N1CCC(Cc2ccccc2)CC1` (centres unmarked) [Ifenprodil, reference compound], the “sigma binding affinity in vivo” value [7] is listed as “Sigma binding affinity has also been found in vivo”, the IC50 [2] is listed as 6800 nM and the Kd [3, 10] is listed as 150 ± 30 nM. For the same compound, the “affinity for the sigma site in vitro” value [8] was “considerable affinity”, the NMDA receptor antagonism [1] was “noncompetitive NMDA receptor antagonists” and the “model describing the interaction with the site labelled by R(+)-[3H]3-PPP” value [5] was “better described by a two-site model”. The Kd [5, 11] was 20 nM, the “% RH = Percent” value [5, 12] was 82% and the Kd [5, 13] was 11 nM. For the same compound, the Kd [5, 14] was 19000 nM.
With `CC(CCc1ccccc1)NC(C)C(O)c1ccc(O)cc1` (centres unmarked) [Nylidrin, reference compound] the IC50 [2] was 73000 nM, the Kd [3, 10] was 30000 ± 8500 nM and the “model describing the interaction with the site labelled by R(+)-[3H]3-PPP” value [5] was “better described by a two-site model”. The Kd [5, 11] was 38 nM, the “% RH = Percent” value [5, 12] was 86% and the Kd [5, 13] was 19 nM. For the same compound, the Kd [5, 14] was 11000 nM.
In the case of `OC(CN1CCC(Cc2ccc(F)cc2)CC1)c1ccc(Cl)cc1` (centres unmarked) [SL82.0715, reference compound], the “dissociability of [125I]ifenprodil specific binding” value ([3]; 16.7 μM SL 82.0715) is reported as “poorly dissociable”, the Kd ([3]; n=3, read-out: dissociation constant of SL82.0715 ([125I]ifenprodil binding)) is reported as 2300 ± 130 nM and the Kd [3, 10] is reported as 2300 ± 100 nM.
For `NCCCCNCCCN` [spermidine, reference compound], the Kd [3, 19] is given as 44000 nM and the “effect on binding of channel ligands” value [9] is given as “profoundly enhance the binding of channel ligands”.
In the case of `NCCCNCCCCNCCCN` [spermine, reference compound], the “dissociability of [125I]ifenprodil specific binding” value ([3]; 1 mM spermine) is listed as “dissociable”, the Kd [3, 19] is listed as 24000 nM and the “effect on binding of channel ligands” value [9] is listed as “profoundly enhance the binding of channel ligands”.

From patent US5462965A, “Use of heterocyclic amino-alcohol compounds for treatment of CNS diseases” (GD Searle & Co., priority 1992, dated 1995)
